Reference: ChEMBL document CHEMBL5046264, “Cyclotides Chemosensitize Glioblastoma Cells to Temozolomide” (J Nat Prod, 2022)

Columns and labels:
SH-SY5Y [1] = test: Cytotoxicity against human SH-SY5Y cells assessed as cell viability at 5 uM upto 72 hrs by MTT assay; format: functional; details: time hrs <=72, read-out: Activity
U-87 MG [2] = test: Cytotoxicity against human U-87 MG cells assessed as cell viability at 5 uM upto 72 hrs by MTT assay; format: functional, U-87MG ATCC; details: time hrs <=72, read-out: Activity
SH-SY5Y [3] = test: Cytotoxicity against human SH-SY5Y cells assessed as cell viability at 10 uM upto 72 hrs by MTT assay; format: functional; details: time hrs <=72, read-out: Activity
SH-SY5Y [4] = test: Cytotoxicity against human SH-SY5Y cells assessed as cell viability using raw interpretation method; format: functional, cell-based
U-251 = test: Cytotoxicity against human U-251 cells by sulforhodamine B assay; format: functional, cell-based
U-87 MG [5] = test: Cytotoxicity against human U-87 MG cells by sulforhodamine B assay; format: functional, cell-based, U-87MG ATCC
U-87 MG [6] = test: Cytotoxicity against human U-87 MG cells using best fit nonlinear regression analysis; format: functional, cell-based, U-87MG ATCC
U-87 MG [7] = test: Cytotoxicity against human U-87 MG cells assessed as cell viability at 10 uM upto 72 hrs by MTT assay; format: functional, U-87MG ATCC; details: time hrs <=72, read-out: Activity
SH-SY5Y [8] = test: Cytotoxicity against human SH-SY5Y cells using best fit nonlinear regression analysis; format: functional, cell-based
U-87 MG [9] = test: Cytotoxicity against human U-87 MG cells assessed as cell viability using raw interpretation method; format: functional, cell-based, U-87MG ATCC
SH-SY5Y [10] = test: Cytotoxicity against human SH-SY5Y cells assessed as cell viability at 2000 uM incubated upto 72 hrs by MTT assay; format: functional; details: time hrs <=72, read-out: Activity
U-87 MG [11] = test: Cytotoxicity against human U-87 MG cells assessed as cell viability at 100 uM incubated upto 72 hrs by MTT assay; format: functional, U-87MG ATCC; details: time hrs <=72, read-out: Activity
SH-SY5Y [12] = test: Cytotoxicity against human SH-SY5Y cells assessed as cell viability at 100 uM incubated upto 72 hrs by MTT assay; format: functional; details: time hrs <=72, read-out: Activity
U-87 MG [13] = test: Induction of morphological changes in human U-87 MG cells assessed as appearance of shrunken cell bodies at 1408 uM measured after 72 hrs by phase contrast microscopy; format: functional, U-87MG ATCC
U-87 MG [14] = test: Cytotoxicity against human U-87 MG cells assessed as cell viability at 10000 uM incubated upto 72 hrs by MTT assay; format: functional, U-87MG ATCC; details: time hrs <=72, read-out: Activity
U-87 MG [15] = test: Induction of morphological changes in human U-87 MG cells assessed as appearance of undergoing apoptosis at 1408 uM measured after 72 hrs by phase contrast microscopy; format: functional, U-87MG ATCC
U-87 MG [16] = test: Cytotoxicity against human U-87 MG cells assessed as cell death at 352 uM incubated upto 72 hrs by MTT assay; format: functional, U-87MG ATCC; details: time hrs <=72
SH-SY5Y [17] = test: Cytotoxicity against human SH-SY5Y cells assessed as cell viability at 500 uM incubated upto 72 hrs by MTT assay; format: functional; details: time hrs <=72, read-out: Activity
U-87 MG [18] = test: Cytotoxicity against human U-87 MG cells assessed as cell viability at 2000 uM incubated upto 72 hrs by MTT assay; format: functional, U-87MG ATCC; details: time hrs <=72, read-out: Activity
U-87 MG [19] = test: Induction of morphological changes in human U-87 MG cells assessed as membrane blebbing at 1408 uM measured after 72 hrs by phase contrast microscopy; format: functional, U-87MG ATCC

Structure (SMILES)	viability at 5 µM (SH-SY5Y [1]) [%]	viability at 5 µM (U-87 MG [2]) [%]	viability at 10 µM (SH-SY5Y [3]) [%]	IC50 (SH-SY5Y [4]) [µM]	IC50 (U-251) [µM]	IC50 (U-87 MG [5]) [µM]	IC50 (U-87 MG [6]) [µM]	viability at 10 µM (U-87 MG [7]) [%]	IC50 (SH-SY5Y [8]) [µM]	IC50 (U-87 MG [9]) [µM]	viability at 2000 µM (SH-SY5Y [10]) [%]	viability at 100 µM (U-87 MG [11]) [%]	viability at 100 µM (SH-SY5Y [12]) [%]	Activity (U-87 MG [13]) [%]	viability at 10000 µM (U-87 MG [14]) [%]	Activity (U-87 MG [15]) [%]	Activity (U-87 MG [16]) [%]	viability at 500 µM (SH-SY5Y [17]) [%]	viability at 2000 µM (U-87 MG [18]) [%]	Activity (U-87 MG [19]) [%]
CC(C)C[C@@H]1NC(=O)CNC(=O)[C@H](CC(N)=O)NC(=O)[C@H](CCCNC(=N)N)NC(=O)[C@H]([C@@H](C)O)NC(=O)[C@@H]2CSSC[C@@H]3NC(=O)[C@H]([C@@H](C)O)NC(=O)CNC(=O)CNC(=O)[C@H](C(C)C)NC(=O)[C@@H]4CSSC[C@H](NC(=O)[C@H]([C@@H](C)O)NC(=O)[C@H](CSSC[C@H](NC(=O)[C@H](C(C)C)NC(=O)[C@@H]5CCCN5C1=O)C(=O)NCC(=O)N[C@@H](CCC(=O)O)C(=O)N[C@@H]([C@@H](C)O)C(=O)N4)NC(=O)CNC(=O)[C@@H]1CCCN1C(=O)[C@H]([C@@H](C)O)NC(=O)[C@H](CC(N)=O)NC3=O)C(=O)N[C@@H](CO)C(=O)N[C@@H](Cc1c[nH]c3ccccc13)C(=O)N1CCC[C@H]1C(=O)N[C@@H](C(C)C)C(=O)N2	60	60	20	6.05	10.9	3.21	7.93	40	5.56	7.97	–	–	–	–	–	–	–	–	–	–
Cn1nnc2c(C(N)=O)ncn2c1=O [TEMOZOLOMIDE]	–	–	–	513	–	–	2900	–	393	3190	15.5	85.2	96.6	40	32.4	40	10	41.5	57.3	40
